According to PubChem BioAssay AID192 (DTP/NCI, 2004):
Several values for one entry are separate records, joined by “and”; a condition that tells them apart may be missing. Equal values may be shown once. Inconclusive results and toxic doses are left out. Rule for the calls: active = survival T/C of 150% or more; inactive = T/C below 125% in these data. Peptide text beside a SMILES is read from it. * marks the point of attachment. Cbz = O=C(OCc1ccccc1)*

System: BDF1 mice, B16 melanoma ip, median survival T/C
Assay: NCI In Vivo Anticancer Drug Screen. Data for tumor model B16 Melanoma (intraperitoneal) in B6D2F1 (BDF1) mice
Settings: endpoint: median survival time, higher = longer survival
Method in brief: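 Mice with transplantable tumors; drug vs vehicle groups; endpoint survival or tumor size; value = T/C.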

[1] = dose: 50.0 mg/kg/injection, schedule: Q01DX009 (ip), vehicle: saline with Tween-80
[2] = dose: 100.0 mg/kg/injection, schedule: Q01DX009 (ip), vehicle: saline with Tween-80
[3] = dose: 200.0 mg/kg/injection, schedule: Q01DX009 (ip), vehicle: saline with Tween-80

Measured: T/C

C[C@]12C=CC(=O)C=C1CC[C@@H]1[C@@H]2C(=O)C[C@@]2(C)[C@H]1CC[C@]2(O)C(=O)CO
inactive: dose: 12.5 mg/kg/injection, schedule: Q01DX009 (sc), vehicle: steriod suspending solution 102 % of control | dose: 25.0 mg/kg/injection, schedule: Q01DX009 (sc), vehicle: steriod suspending solution 102 % of control | dose: 50.0 mg/kg/injection, schedule: Q01DX009 (sc), vehicle: steriod suspending solution 89 % of control and 102 % of control and 110 % of control | dose: 50.0 mg/kg/injection, schedule: Q01DX017 (sc), vehicle: steriod suspending solution 104 % of control | dose: 50.0 mg/kg/injection, schedule: Q## X009 (sc), vehicle: steriod suspending solution 102 % of control | dose: 100.0 mg/kg/injection, schedule: Q01DX001 (sc), vehicle: steriod suspending solution 100 % of control | dose: 100.0 mg/kg/injection, schedule: Q01DX009 (sc), vehicle: steriod suspending solution 109 % of control | dose: 100.0 mg/kg/injection, schedule: Q01DX017 (sc), vehicle: steriod suspending solution 97 % of control | dose: 100.0 mg/kg/injection, schedule: Q04DX003 (sc), vehicle: steriod suspending solution 109 % of control | dose: 100.0 mg/kg/injection, schedule: Q04DX005 (sc), vehicle: steriod suspending solution 97 % of control | dose: 100.0 mg/kg/injection, schedule: Q## X009 (sc), vehicle: steriod suspending solution 118 % of control | dose: 200.0 mg/kg/injection, schedule: Q01DX001 (sc), vehicle: steriod suspending solution 95 % of control | dose: 200.0 mg/kg/injection, schedule: Q01DX009 (sc), vehicle: steriod suspending solution 123 % of control | dose: 200.0 mg/kg/injection, schedule: Q04DX003 (sc), vehicle: steriod suspending solution 104 % of control | dose: 200.0 mg/kg/injection, schedule: Q04DX005 (sc), vehicle: steriod suspending solution 106 % of control | dose: 200.0 mg/kg/injection, schedule: Q## X009 (sc), vehicle: steriod suspending solution 106 % of control | dose: 400.0 mg/kg/injection, schedule: Q01DX001 (sc), vehicle: steriod suspending solution 95 % of control | dose: 400.0 mg/kg/injection, schedule: Q04DX003 (sc), vehicle: steriod suspending solution 106 % of control | dose: 400.0 mg/kg/injection, schedule: Q04DX005 (sc), vehicle: steriod suspending solution 109 % of control | dose: 400.0 mg/kg/injection, schedule: Q## X009 (sc), vehicle: steriod suspending solution 106 % of control | dose: 800.0 mg/kg/injection, schedule: Q01DX001 (sc), vehicle: steriod suspending solution 93 % of control

C=CC(=O)[O][Pb]([CH3])([CH3])[CH3]
inactive: dose: 0.75 mg/kg/injection, schedule: Q01DX009 (ip), vehicle: saline with Tween-80 94 % of control | dose: 1.5 mg/kg/injection, schedule: Q01DX009 (ip), vehicle: saline with Tween-80 95 % of control

CC(C)N(CCCO)C(C)C
inactive: [1] 101 % of control | [2] 97 % of control

CCNc1nc(Cl)nc(NC(C)C)n1
inactive: [1] 100 % of control | [2] 102 % of control | [3] 104 % of control

CCC[CH2][Sn]([CH2]CCC)[CH2]CCC.CCC[CH2][Sn]([CH2]CCC)[CH2]CCC
inactive: dose: 5.0 mg/kg/injection, schedule: Q01DX009 (ip), vehicle: Klucel (hydroxypropylcellulose) (HPC) 109 % of control

C1=NCCCN1
inactive: dose: 25.0 mg/kg/injection, schedule: Q01DX009 (ip), vehicle: saline 114 % of control | dose: 50.0 mg/kg/injection, schedule: Q01DX009 (ip), vehicle: saline 117 % of control | dose: 100.0 mg/kg/injection, schedule: Q01DX009 (ip), vehicle: saline 113 % of control

CN(CCO)C1=C(N2CC2)C(=O)C(N(C)CCO)=C(N2CC2)C1=O
inactive: dose: 100.0 micrograms/kg/injection, schedule: Q01DX009 (ip), vehicle: saline 111 % of control | dose: 200.0 micrograms/kg/injection, schedule: Q01DX009 (ip), vehicle: saline 118 % of control

Cc1cc2c(c3oc(C4(C)OC4C4OC4C)cc(=O)c13)C(=O)c1c(O)c(C3CC(C)(N(C)C)C(O)C(C)O3)cc(C3CC(N(C)C)C(O)C(C)O3)c1C2=O (configuration not stated)
inactive: dose: 1.3 micrograms/kg/injection, schedule: Q01DX009 (ip), vehicle: clinical formulation 108 % of control | dose: 1.3 micrograms/kg/injection, schedule: Q01DX009 (ip), vehicle: saline 97 % of control | dose: 2.5 micrograms/kg/injection, schedule: Q01DX009 (ip), vehicle: clinical formulation 117 % of control | dose: 2.5 micrograms/kg/injection, schedule: Q01DX009 (ip), vehicle: saline 108 % of control | dose: 4.0 micrograms/kg/injection, schedule: Q01DX009 (ip), vehicle: Klucel (hydroxypropylcellulose) (HPC) 119 % of control | dose: 5.0 micrograms/kg/injection, schedule: Q01DX009 (ip), vehicle: Klucel (hydroxypropylcellulose) (HPC) 122 % of control | dose: 5.0 micrograms/kg/injection, schedule: Q01DX009 (ip), vehicle: saline 107 % of control and 108 % of control | dose: 8.0 micrograms/kg/injection, schedule: Q01DX009 (ip), vehicle: Klucel (hydroxypropylcellulose) (HPC) 110 % of control | dose: 10.0 micrograms/kg/injection, schedule: Q01DX009 (ip), vehicle: clinical formulation 113 % of control | dose: 10.0 micrograms/kg/injection, schedule: Q01DX009 (ip), vehicle: saline 101 % of control and 123 % of control | dose: 20.0 micrograms/kg/injection, schedule: Q01DX009 (ip), vehicle: saline 124 % of control | dose: 40.0 micrograms/kg/injection, schedule: Q01DX009 (ip), vehicle: saline 114 % of control

CCCCNC1=C(N2CC2)C(=O)C(NCCCC)=C(N2CC2)C1=O
inactive: dose: 1.25 mg/kg/injection, schedule: Q01DX009 (ip), vehicle: saline 113 % of control | dose: 2.5 mg/kg/injection, schedule: Q01DX009 (ip), vehicle: saline 112 % of control

O=[N+]([O-])c1ccc(Oc2ccc(Cl)cc2)cc1
inactive: dose: 100.0 mg/kg/injection, schedule: Q01DX009 (ip), vehicle: Klucel (hydroxypropylcellulose) (HPC) 93 % of control | dose: 200.0 mg/kg/injection, schedule: Q01DX009 (ip), vehicle: Klucel (hydroxypropylcellulose) (HPC) 93 % of control | dose: 400.0 mg/kg/injection, schedule: Q01DX009 (ip), vehicle: Klucel (hydroxypropylcellulose) (HPC) 100 % of control

CC(=O)Nc1cc2c(cc1Br)-c1ccccc1C2O (configuration not stated)
inactive: dose: 12.5 mg/kg/injection, schedule: Q01DX009 (ip), vehicle: saline with Tween-80 92 % of control | dose: 12.5 mg/kg/injection, schedule: Q04DX003 (ip), vehicle: saline with Tween-80 92 % of control | dose: 25.0 mg/kg/injection, schedule: Q01DX009 (ip), vehicle: saline with Tween-80 102 % of control | dose: 25.0 mg/kg/injection, schedule: Q04DX003 (ip), vehicle: saline with Tween-80 100 % of control | [1] 89 % of control | dose: 50.0 mg/kg/injection, schedule: Q04DX003 (ip), vehicle: saline with Tween-80 95 % of control | dose: 100.0 mg/kg/injection, schedule: Q04DX003 (ip), vehicle: saline with Tween-80 90 % of control

O=C(O)C1CC1.[Ag]
inactive: dose: 0.78 mg/kg/injection, schedule: Q01DX009 (ip), vehicle: water 114 % of control | dose: 1.56 mg/kg/injection, schedule: Q01DX009 (ip), vehicle: water 108 % of control | dose: 3.12 mg/kg/injection, schedule: Q01DX009 (ip), vehicle: water 108 % of control | dose: 6.25 mg/kg/injection, schedule: Q01DX009 (ip), vehicle: water 93 % of control | dose: 12.5 mg/kg/injection, schedule: Q01DX009 (ip), vehicle: water 91 % of control

CC(NC(=O)C(Cc1ccc(O)cc1)NC(=O)C(C)NC(=O)OCc1ccccc1)C(=O)O (stereo not drawn) (Cbz-Ala-Tyr-Ala-OH; configuration not given here)
inactive: [1] 98 % of control | [2] 93 % of control | [3] 96 % of control | dose: 400.0 mg/kg/injection, schedule: Q01DX009 (ip), vehicle: saline with Tween-80 92 % of control
